Active and inactive are the calls of the source. No cut-off for these calls is given here.
How the values were obtained:
HT-29 [1] = experiment: Effect on MLKL protein level in human HT-29 cell precipitate at 6 uM measured after 9 hrs by Western blot analysis; format: functional, cell-based
[2] = Tmax in Sprague-Dawley rat at 2 mg/kg, iv measured after 24 hrs by LC-MS/MS analysis; format: ADME, organism-based; settings: in vivo
HT-29 [3] = experiment: Downregulation of MLKL protein level in human HT-29 cells at 6 uM preincubated with MG132 for 2 hrs followed by compound addition and measured after 9 hrs by Western blot analysis; format: functional, cell-based
[4] = Acute toxicity in male C57BL/6J mouse assessed as hemorrhage in stomach at 2 g/Kg, IG measured after 72 hrs by H and E staining based analysis; format: tissue-based; settings: in vivo, po, 2000 mg/kg
[5] = Acute toxicity in male C57BL/6J mouse assessed as inflammatory cell infiltration in intestine at 2 g/Kg, IG measured after 72 hrs by H and E staining based analysis; format: tissue-based; settings: in vivo, po, 2000 mg/kg
[6] = Acute toxicity in male C57BL/6J mouse assessed as effect on AST level at 2 g/Kg, IG measured after 72 hrs; settings: in vivo, po, 2000 mg/kg
[7] = Bioavailability in Sprague-Dawley rat at 10 mg/kg, IG measured after 24 hrs by LC-MS/MS analysis; format: ADME, organism-based; settings: in vivo, po
[8] = Acute toxicity in male C57BL/6J mouse assessed as inflammatory cell infiltration in liver at 2 g/Kg, IG measured after 72 hrs by H and E staining based analysis; format: tissue-based; settings: in vivo, po, 2000 mg/kg
[9] = target: Receptor-interacting serine/threonine-protein kinase 3 (Homo sapiens) (UniProt Q9Y572); experiment: Inhibition of RIPK3 phosphorylation at S227 residue in TSZ-induced human HT-29 cells at 10 uM preincubated with compound followed by Z-VAD-FMK, SM164 and TNFalpha stimulation and measured after 6 hrs by Western blot analysis; format: cell-based
L929 = experiment: Anti-necroptotic activity in TZ-induced mouse L929 cells assessed as rounded shape cell morphology at 10 uM measured after 12 hrs by Live-cell super-resolution panoramic microscopic analysis; format: functional, cell-based
Mus musculus [10] = experiment: (§1) Anti-necroptotic activity in TNFalpha/Z-VAD-FMK induced SIRS male C57BL/6J mouse model assessed as reduction in IL6 in spleen at 5 to 10 mg/kg, po pre-administered with compound via gavage for 2 hrs followed by […] of Z-VAD-FMK stimulation for 15 mins with subsequent TNF-alpha stimulation for 1 hrs and re-current […] of Z-VAD-FMK stimulation and measured after 8 hrs post SIRS induction by ELISA; format: functional, organism-based; settings: dose 5-10 mg/kg, time 10.0 hrs
HT-29 [11] = experiment: Downregulation of MLKL protein level in human HT-29 cells at 3 to 6 uM incubated for 9 hrs by Western blot analysis; format: functional, cell-based; settings: dose 3-6 µM
HT-29 [12] = experiment: Downregulation of MLKL protein level in human HT-29 cells incubated for 9 hrs by Western blot analysis; format: functional, cell-based; settings: dose 0.75-6 µM
[13] = target: T1, Receptor-interacting serine/threonine-protein kinase 1 (Homo sapiens) (UniProt Q13546); experiment: Inhibition of RIPK1 phosphorylation at S166 residue in TSZ-induced human HT-29 cells at 10 uM preincubated with compound followed by Z-VAD-FMK, SM164 and TNFalpha stimulation and measured after 6 hrs by Western blot analysis; format: cell-based
T1 sequence (whole entry): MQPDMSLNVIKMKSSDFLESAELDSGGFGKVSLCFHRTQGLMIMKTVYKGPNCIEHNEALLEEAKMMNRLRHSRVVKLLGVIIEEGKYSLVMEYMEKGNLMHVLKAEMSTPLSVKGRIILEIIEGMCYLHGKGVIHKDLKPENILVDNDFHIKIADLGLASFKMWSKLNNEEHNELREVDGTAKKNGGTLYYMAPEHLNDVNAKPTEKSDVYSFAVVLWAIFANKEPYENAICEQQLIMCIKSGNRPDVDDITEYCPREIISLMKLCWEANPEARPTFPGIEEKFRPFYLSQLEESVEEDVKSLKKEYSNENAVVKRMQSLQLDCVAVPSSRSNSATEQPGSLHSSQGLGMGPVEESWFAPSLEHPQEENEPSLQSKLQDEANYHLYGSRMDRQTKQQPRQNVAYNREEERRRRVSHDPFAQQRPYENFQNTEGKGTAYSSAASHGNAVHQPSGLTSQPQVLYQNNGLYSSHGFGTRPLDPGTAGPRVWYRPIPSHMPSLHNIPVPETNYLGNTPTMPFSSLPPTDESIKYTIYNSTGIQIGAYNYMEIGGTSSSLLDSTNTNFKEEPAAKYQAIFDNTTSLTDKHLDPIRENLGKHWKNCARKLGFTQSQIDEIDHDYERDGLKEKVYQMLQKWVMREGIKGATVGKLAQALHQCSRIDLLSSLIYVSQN

[14] = Inhibition of TSZ-mediated necrosome formation in human HT-29 cells at 10 uM preincubated with compound followed by Z-VAD-FMK, SM164 and TNFalpha stimulation and measured after 6 hrs by co-immunoprecipitation based Western blot analysis relative to control; format: functional
HT-29 [15] = experiment: Downregulation of RIPK3 protein level in human HT-29 cells at 6 uM preincubated with Z-VAD-FMK for 2 hrs followed by compound addition and measured after 9 hrs by Western blot analysis; format: functional, cell-based
HT-29 [16] = experiment: Downregulation of RIPK3 protein level in human HT-29 cells at 6 uM preincubated with NH4Cl for 2 hrs followed by compound addition and measured after 9 hrs by Western blot analysis; format: functional, cell-based
[17] = Acute toxicity in male C57BL/6J mouse assessed as structural changes in lung at 2 g/Kg, IG measured after 72 hrs by H and E staining based analysis; format: tissue-based; settings: in vivo, po, 2000 mg/kg
[18] = Acute toxicity in male C57BL/6J mouse assessed as inflammatory cell infiltration in stomach at 2 g/Kg, IG measured after 72 hrs by H and E staining based analysis; format: tissue-based; settings: in vivo, po, 2000 mg/kg
HeLa [19] = experiment: Inhibition of RIPK1 protein expression in RIPK3-deficient human HeLa cells at 0.75 to 6 uM incubated for 9 hrs by Western blot analysis; format: functional, cell-based; settings: dose 0.75-6 µM
[20] = Acute toxicity in male C57BL/6J mouse assessed as structural changes in brain at 2 g/Kg, IG measured after 72 hrs by H and E staining based analysis; format: tissue-based; settings: in vivo, po, 2000 mg/kg
[21] = Acute toxicity in male C57BL/6J mouse assessed as inflammatory cell infiltration in kidney at 2 g/Kg, IG measured after 72 hrs by H and E staining based analysis; format: tissue-based; settings: in vivo, po, 2000 mg/kg
HT-29 [22] = experiment: Downregulation of RIPK1 protein level in human HT-29 cell supernatant at 6 uM measured after 9 hrs by Western blot analysis; format: functional, cell-based
HT-29 [23] = experiment: Downregulation of MLKL protein level in human HT-29 cells at 6 uM preincubated with MLN4924 for 2 hrs followed by compound addition and measured after 9 hrs by Western blot analysis; format: functional, cell-based
HeLa [24] = experiment: Upregulation of HSP70 expression in RIPK3-deficient human HeLa cells at 1.5 uM incubated for 9 hrs by Western blot analysis; format: functional, cell-based
HT-29 [25] = experiment: Downregulation of RIPK3 protein level in human HT-29 cells at 6 uM preincubated with MLN4924 for 2 hrs followed by compound addition and measured after 9 hrs by Western blot analysis; format: functional, cell-based
Mus musculus [26] = experiment: as §1, with “survival rate” for “reduction in IL6 in spleen”, “2.5” for “5 to 10”, “relative to control” for “by ELISA”; format: functional; settings: time 10 hrs

Receptor-interacting serine/threonine-protein kinase 3 (Homo sapiens), sequence (Q9Y572 whole entry, looked up): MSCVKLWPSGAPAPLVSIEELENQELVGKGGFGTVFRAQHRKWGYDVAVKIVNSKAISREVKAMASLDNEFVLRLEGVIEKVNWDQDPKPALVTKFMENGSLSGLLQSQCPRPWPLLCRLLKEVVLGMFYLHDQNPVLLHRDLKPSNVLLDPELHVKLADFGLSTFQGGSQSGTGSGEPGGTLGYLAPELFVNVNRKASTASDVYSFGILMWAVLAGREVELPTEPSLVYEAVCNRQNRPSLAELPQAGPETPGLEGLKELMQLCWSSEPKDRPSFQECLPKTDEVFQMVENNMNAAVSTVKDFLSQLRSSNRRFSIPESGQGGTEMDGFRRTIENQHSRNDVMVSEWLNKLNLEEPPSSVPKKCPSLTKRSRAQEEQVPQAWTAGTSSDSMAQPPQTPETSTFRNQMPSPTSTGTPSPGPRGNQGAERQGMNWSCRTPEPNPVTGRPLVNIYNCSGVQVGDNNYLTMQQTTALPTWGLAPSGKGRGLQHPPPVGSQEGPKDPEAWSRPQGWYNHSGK

Which Activity (HT-29 [1]) does the source give for `Cn1ccc(-c2ccc(NC(=O)[C@]34CCC(C)(C)C[C@H]3[C@H]3C(=O)C=C5[C@@]6(C)C=C(C#N)C(=O)C(C)(C)[C@@H]6CC[C@@]5(C)[C@]3(C)CC4)cc2)n1` here?
The Activity was “inactive”.

What about the Tmax [2] of the same molecule?
The Tmax was 4.98 min.

And the Activity (HT-29 [3])?
The Activity was “Active”.

And the Activity [4]?
The Activity was “Non-toxic”.

What about the Activity [5] of the same molecule?
Its Activity is “Non-toxic”.

What about the Activity [6] of the same molecule?
Its Activity is “Non-toxic”.

And the bioavailability [7]?
Its bioavailability is 4.66%.

And the Activity [8]?
The Activity was “Non-toxic”.

What about the inhibition [9] of the same molecule?
The inhibition was “Active”.

And the Activity (L929)?
The Activity was “Active”.

What about the Activity (Mus musculus [10]) of the same molecule?
The Activity was “Active”.

And the Activity (HT-29 [11])?
The Activity was “Active; Significant Effect Observed”.

What about the Activity (HT-29 [12]) of the same molecule?
Its Activity is “Dose-dependent-effect”.

And the inhibition [13]?
The inhibition was “Active”.

What about the inhibition at 10 µM [14] of the same molecule?
Its inhibition at 10 µM is 100%.

What about the Activity (HT-29 [15]) of the same molecule?
The Activity was “Active”.

And the Activity (HT-29 [16])?
The Activity was “Active”.

What about the Activity [17] of the same molecule?
Its Activity is “Non-toxic”.

And the Activity [18]?
The Activity was “Non-toxic”.

And the inhibition (HeLa [19])?
The inhibition was “Active”.

What about the Activity [20] of the same molecule?
Its Activity is “Non-toxic”.

And the Activity [21]?
The Activity was “Non-toxic”.

And the Activity (HT-29 [22])?
The Activity was “Active”.

And the Activity (HT-29 [23])?
Its Activity is “Active”.

And the Activity (HeLa [24])?
The Activity was “Active”.

What about the Activity (HT-29 [25]) of the same molecule?
The Activity was “Active”.

And the survival at 2.5 mg/kg (Mus musculus [26])?
Its survival at 2.5 mg/kg is 35%.

From ChEMBL document CHEMBL6177981, “Bardoxolone Derivatives as Novel Pseudo-Natural Necroptosis Inhibitors by Destabilizing HSP90 Client Proteins” (J Med Chem, 2025)
